# Experimental data reported in US12685739B2, “Compositions and methods for treating lung injury” (University of Maryland, Baltimore, priority 2020, dated 2026).
# pEC50: −log10 of the molar value.
# Tests used:
# [1] = test system: murine model of ALI induced by intranasal ovalbumin (OVA); details: 20 mg/kg, mice pre-sensitized to OVA; cited from earlier work
# [2] = test system: rat model of VILI with MV alone; experiment: rat model of VILI with mechanical ventilation alone; details: 10 μg/kg IP at start of MV, MV 4 hours (10 mL/kg), assessed at 24 hours, vs vehicle
# [3] = test system: mouse model of ventilator-induced lung injury (VILI); details: 50 mg/kg, VT=15 mL/kg; cited from earlier work
# human neutrophils = experiment: MRP8/14 exocytosis from activated human neutrophils, ELISA; type: cell-based; design: dose or concentration left out as unconfirmed; details: co-incubation with glibenclamide, n=6
# Protocol: FIG. 9. […] Exocytosis of MRP8/14 from human neutrophils using ELISA was studied. […] Co-immunoprecipitation experiments were performed to determine whether SUR1 and MRP8/14 physically co-associate.
# [4] = test system: LPS-induced mouse model of ARDS; experiment: LPS-induced mouse model of ARDS; type: in vivo; details: 10 μg IP 2 hours after LPS and again 5 hours later, 24 hours after LPS, vs vehicle
# Protocol: At 24 hours after LPS induction, bronchioalveolar fluid (BALF) was analyzed for neutrophil infiltration, and lung tissues were analyzed for cytokine expression. […].
# At 24 hours after LPS induction, bronchioalveolar fluid (BALF) was analyzed for neutrophil infiltration, and lung tissues were analyzed for S100A8/MRP8, which is released by neutrophils. As previously, LPS instilled into the lungs caused a massive invasion of neutrophils into the BALF, as well as dramatic accumulation of the S100A8/MRP8. […]
# [5] = test system: rat model of ALI induced by IV administration of oleic acid (OA); details: 75 mg/kg IP 1 hour before OA; cited from earlier work
# [6] = test system: rat model of ARDS plus MV; experiment: rat model of ARDS (intratracheal HCl) plus mechanical ventilation; type: in vivo
# Protocol: In other cases, a rat model of ARDS was used in which acute lung injury is induced by acid instillation, followed by mechanical ventilation. […] In a second experiment, a conventional rat model of ARDS plus MV was used. Rats were anesthetized and intubated. […] After inducing ALI, rats received MV for 4 hours, as above, except that VT=8 mL/kg. Rats were euthanized at 24 hours. […] MV (VT=8 mL/kg) was continued for 4 hours, following which rats were extubated, recovered from anesthesia and returned to their home cages. Lung function was evaluated at 24 hours. Rats were re-anesthetized. […] Rats were then re-intubated for MV. […] In a subgroup of rats, after completing the 24-hour lung function assessments, rats were euthanized, and the lungs were […] using 5 mL normal saline to obtain bronchioalveolar lavage fluid (BALF). BALF was analyzed for protein.
# SUR1-regulated channels = details: in vitro, low-dose; read-out: EC50, inhibition of SUR1-regulated channels; cited from earlier work
# [7] = 50 μg/kg IP at onset of MV and at 6 hours, 24 hours, vs VEH
smiles,measurement,setting,value
COc1ccc(Cl)cc1C(=O)NCCc1ccc(S(=O)(=O)NC(=O)NC2CCCCC2)cc1 [glibenclamide],"Th2 cytokines IL-5, IL-4 and IL-13 in BALF",[1],significantly reduced
same,pulmonary edema (wet weight/dry weight),[2],significantly reduced
same,pulmonary edema (wet weight/dry weight),[2]; listed as GLIB,significantly decreased pulmonary edema
same,pulmonary edema (wet weight/dry weight),[2]; listed as Glibenclamide,significantly decreased pulmonary edema
same,"BALF total protein, neutrophils, IL-1β, IL-6 and KC levels",[3],reduced
same,pulmonary edema,[3],reduced pulmonary edema
same,MRP8/14 exocytosis (release into extracellular media),human neutrophils; neutrophils stimulated with LPS,significantly reduced
same,MRP8/14 exocytosis (release into extracellular media),human neutrophils; neutrophils stimulated with PMA,significantly reduced
same,IL-6 in lung tissues,[4],significant reduction
same,MCP-1 in lung tissues,[4],significant reduction
same,S100A8/MRP8 in lung tissues,[4],significant reduction
same,neutrophils in BALF,[4],significant reduction
same,IL-6 in lung tissues,[4]; listed as Glibenclamide,significant reductions
same,MCP-1 in lung tissues,[4]; listed as Glibenclamide,significant reductions
same,levels of myeloperoxidase (MPO) and malondialdehyde (MDA),[5],reduced levels
same,"pulmonary interstitial edema, infiltration of neutrophils and mononuclear cells",[5],significantly alleviated
same,"dynamic lung compliance, pressure-volume curve",[6]; [7],the shift to the right was less pronounced
same,"hemoglobin (Hgb) in lung tissues, immunoblot",[6]; [7],less hemorrhagic exudate
same,"hemorrhagic exudates, gross appearance of lungs",[6]; [7],reduced hemorrhagic exudates
same,protein in BALF,[6]; [7],the increase was less pronounced
same,"oxygen saturation (sO2), pulse oximetry","[6]; 50 μg/kg IP at onset of MV and at 6 hours, at 24 hours, n=3",88±4.4%
same,"cellular infiltrates, H&E-stained lung sections","[6]; ARDS with MV, vs VEH",reduced cellular infiltrates
same,"neutrophil invasion, immunohistochemistry for MPO","[6]; lung tissues, vs VEH",less pronounced
same,quantification of MPO by immunohistochemistry and immunoblot,"[6]; lung tissues, vs VEH",significant reduction
same,NOS2 expression in lung tissues,[6]; vs VEH,attenuated
same,TNF expression in lung tissues,[6]; vs VEH,attenuated
same,pEC50,SUR1-regulated channels,7.32
